Consider 25 compounds from the supplement of paper PMC7801607.

The subject of assay [1] is Plasmodium falciparum NF54 stage IV/V gametocytes. The procedure: (§1)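 Dose-response IC50s: P. falciparum NF54 asexual (pLDH, 72 h; 6 means >6 µM), Dd2 asexual (SYBR Green I, 72 h, 1536-well; 5 means >5 µM), NF54 stage IV/V gametocytes (luciferase 48 h, ATP 24 h, PrestoBlue 48 h), P. berghei liver stage in HepG2-A16-CD81 (luciferase, 48 h; 5 means >5 µM), HepG2 CC50 (CellTiter-Glo; 5 means >5 µM).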

For assay [2], the system named is Plasmodium berghei ANKA liver stage in HepG2-A16-CD81.
The subject of assay [3] is Plasmodium falciparum Dd2 asexual blood stage.
Assay [4] concerns Plasmodium falciparum NF54 asexual blood stage.
For a further assay, the system named is HepG2-A16-CD81. The experiment in a line: CC50; higher = less toxic. How it is done:
as §1

Assay [5] has as its system Plasmodium falciparum NF54 stage IV/V gametocytes. The procedure:
as §1
The source holds these as a separate data set.

The IC50 is the concentration at which inhibition is half-maximal. As a reminder, the CC50 is the concentration at which the toxic effect on the cells reaches its halfway point.

For `CN(C)CCCOc1ccc(-c2ccc3ncc4c(c3c2)n(C2CCOCC2)c(=O)n4C)cn1`, the “IC50 (luciferase reporter)” value in assay [1] came out at 1670 nM. Besides, the IC50 stood at 1060 nM in assay [2], 776 nM in assay [3] and 4000 nM in assay [4]. The compound further returned a CC50 in the assay on HepG2-A16-CD81 of over 5000 nM.
Take `O=C1C=C(c2ccccc2)S(=O)(=O)c2ccccc21`: the “IC50 (luciferase reporter)” value in assay [1] was 25700 nM. The same compound had an IC50 in assay [3] of over 5000 nM. Moreover, the “IC50 (ATP bioluminescence)” value in assay [5] amounted to 2160 nM.
As for `CC(C)(C)c1ccc(Oc2ccc(N)cc2)cc1`, the “IC50 (luciferase reporter)” value in assay [1] is 1080 nM. Also, in assay [3], the IC50 is over 5000 nM.
For `CC[C@H](NC(=O)[C@H](C)NC)C(=O)N1C[C@@H](O)C[C@H]1Cc1c(-c2[nH]c3cc(F)ccc3c2C[C@@H]2C[C@H](O)CN2C(=O)[C@H](CC)NC(=O)[C@H](C)NC)[nH]c2cc(F)ccc12`, the “IC50 (luciferase reporter)” value in assay [1] stood at 5210 nM. Also, the results for the IC50 in assay [2], in assay [3] and in assay [4] were 128 nM, 236 nM and 986 nM, respectively. Moreover, the “IC50 (ATP bioluminescence)” value in assay [5] is 1530 nM. In the assay with HepG2-A16-CD81, this compound showed a CC50 of over 5000 nM.
Turning to `N=C(N)NCCCCC(=O)Nc1cc(C(F)(F)F)cc(NC(=O)c2cc(C(=O)Nc3cc(C(F)(F)F)cc(NC(=O)CCCCNC(=N)N)c3O[C@@H]3CCNC3)ncn2)c1O[C@@H]1CCNC1`, the “IC50 (luciferase reporter)” value in assay [1] stood at 6070 nM. Also, the IC50 in assay [3] was 3360 nM; in assay [4], 2210 nM.
With `O=C(Nc1ccc(F)cc1)c1nn(-c2ccccc2)c(=O)cc1Cl`, the “IC50 (luciferase reporter)” value in assay [1] was determined as 30600 nM. In addition, the IC50 in assay [3] is over 5000 nM.
In the case of `CCN(CC)CCn1c(=N)n(CC(O)COc2ccc(Cl)cc2Cl)c2ccccc21` (configuration not stated), in assay [1], the “IC50 (luciferase reporter)” value was 3800 nM. The IC50 is over 5000 nM in assay [2], 792 nM in assay [3] and 678 nM in assay [4]. Further, the “IC50 (ATP bioluminescence)” value in assay [5] was determined as 350 nM. The CC50 with HepG2-A16-CD81 was over 5000 nM.
For the compound `Oc1c(C(Nc2nc3ccccc3s2)c2ccc(OC(F)F)cc2)ccc2cccnc12` (configuration not stated), in assay [1], the “IC50 (luciferase reporter)” value turned out to be 5400 nM. Besides, the IC50 in assay [3] was 3150 nM; in assay [4], 1670 nM.
As for `COc1cc(C)c2c(Oc3cccc(C(F)(F)F)c3)c(OC)cc(NC(C)CCCN)c2n1` (configuration not stated), the “IC50 (luciferase reporter)” value in assay [1] is 7690 nM. The results for the IC50 in assay [2], in assay [3] and in assay [4] were 3340 nM, 506 nM and 940 nM, respectively. Further, the “IC50 (ATP bioluminescence)” value in assay [5] worked out at 1400 nM. In the assay with HepG2-A16-CD81, this compound showed a CC50 of over 5000 nM.
In the case of `N#Cc1c(F)c(Cl)c(NCc2ccccc2)c(C#N)c1F`, the “IC50 (luciferase reporter)” value in assay [1] came to 31600 nM. Further, the IC50 was over 5000 nM in assay [3] and over 6000 nM in assay [4].
With `CCCCC(CC)CNC(=N)NC(=N)NCCCCCCNC(=N)NC(=N)NCC(CC)CCCC` (configuration not stated), the “IC50 (luciferase reporter)” value in assay [1] came to 1030 nM. Further, the figures for the IC50 in assay [2], in assay [3] and in assay [4] were 2170 nM, 23 nM and 109 nM, respectively. In assay [5], the “IC50 (ATP bioluminescence)” value was 824 nM. In the assay on HepG2-A16-CD81, the CC50 came out at 4140 nM.
Turning to `CCOc1ccc(C(=O)NCCc2ccccc2)cc1`, the “IC50 (luciferase reporter)” value in assay [1] amounted to 11400 nM. In assay [3], this compound yielded an IC50 of over 5000 nM.
For `Cn1cc(NC(=O)c2cc(NC(=O)c3ccc(/C=C/c4cnc5ccccc5c4)cc3)cn2C)cc1C(=O)NCCN1CCOCC1`, the “IC50 (luciferase reporter)” value in assay [1] amounted to 103 nM. Moreover, the figures for the IC50 in assay [2], in assay [3] and in assay [4] were 1990 nM, 69.4 nM and 62.1 nM, respectively. In the assay on HepG2-A16-CD81, this compound gave a half-maximal cytotoxic concentration (CC50) of over 5000 nM.
For the compound `Clc1cc(Cl)c2c(c1)CCc1ccccc1C2n1ccnc1` (configuration not stated), the “IC50 (luciferase reporter)” value in assay [1] was found to be 7650 nM. For the same compound, the IC50 in assay [2] is over 5000 nM; in assay [3], 3380 nM; in assay [4], 1480 nM. Moreover, in assay [5], the “IC50 (ATP bioluminescence)” value is 4230 nM. In the assay with HepG2-A16-CD81, this compound yielded a CC50 of over 5000 nM.
In the case of `CN1CCN(Cc2ccc(-c3cnc4[nH]cc(-c5ccc6[nH]ccc6c5)c4c3)cc2)CC1`, the figures for the IC50 in assay [2], in assay [3] and in assay [4] were 2510 nM, 1900 nM and 1390 nM, respectively. In addition, in assay [5], the “IC50 (ATP bioluminescence)” value turned out to be 1660 nM. Moreover, the CC50 with HepG2-A16-CD81 was over 5000 nM.
Regarding `CCC(C)NCC(O)Cn1c2ccc(Cl)cc2c2cc(Cl)ccc21` (configuration not stated), the “IC50 (luciferase reporter)” value in assay [1] is 7640 nM. Also, the IC50 in assay [2] was over 5000 nM; in assay [3], 51.6 nM; in assay [4] it was 383 nM. In addition, the “IC50 (ATP bioluminescence)” value in assay [5] was determined as 2910 nM. The CC50 with HepG2-A16-CD81 was over 5000 nM.
In the case of `Nc1nc(Nc2ccc3nc(-c4ccc(F)cc4)cc(N)c3c2)cc(-c2ccccc2)n1`, the “IC50 (luciferase reporter)” value in assay [1] came out at 152 nM. Moreover, the values for the IC50 in assay [2], in assay [3] and in assay [4] were over 5000 nM, 55 nM and 49.5 nM, respectively. For the same compound, the “IC50 (ATP bioluminescence)” value in assay [5] came out at 79.9 nM. In the assay on HepG2-A16-CD81, the CC50 was over 5000 nM.
As to `O=C(/C(=C/c1ccc(Cl)cc1Cl)n1ccnc1)c1ccc(Cl)cc1`, the “IC50 (luciferase reporter)” value in assay [1] is 7080 nM. Further, the IC50 turned out to be 3320 nM in assay [3] and 2630 nM in assay [4]. For the same compound, the “IC50 (ATP bioluminescence)” value in assay [5] is 824 nM.
For `Cc1nc2ccc(Oc3ccccc3)cc2c2c1CCN2CCc1ccccc1`, the “IC50 (luciferase reporter)” value in assay [1] was 46300 nM. Moreover, the results for the IC50 in assay [3] and in assay [4] were over 5000 nM and 3010 nM, respectively. In assay [5], the “IC50 (ATP bioluminescence)” value stood at 1130 nM.
Turning to `CCOC(=O)Nc1cc(NC(C)CC(C)CN(CC)CC)c2nc(-c3ccccc3)c(-c3ccccc3)nc2n1` (configuration not stated), the “IC50 (luciferase reporter)” value in assay [1] amounted to 28600 nM. In assay [3], this compound registered an IC50 of 4050 nM. Moreover, the “IC50 (ATP bioluminescence)” value in assay [5] amounted to 4260 nM.
Take `Oc1cccc(C(Nc2nccs2)c2ccc3cccnc3c2O)c1` (configuration not stated): the “IC50 (luciferase reporter)” value in assay [1] came out at 15900 nM. For the same compound, the IC50 was over 5000 nM in assay [3] and 3460 nM in assay [4]. Besides, the “IC50 (ATP bioluminescence)” value in assay [5] was 5020 nM.
With `N=c1n(CCN2CCCCC2)c2ccccc2n1CC(O)COc1ccc(Cl)cc1Cl` (configuration not stated), the “IC50 (luciferase reporter)” value in assay [1] was determined as 3820 nM. The IC50 in assay [2] was 2790 nM; in assay [3] it was 831 nM; in assay [4] it was 1070 nM. For the same compound, the “IC50 (ATP bioluminescence)” value in assay [5] was 340 nM. In the assay on HepG2-A16-CD81, this compound gave a 50% cytotoxic concentration (CC50) of over 5000 nM.
For the compound `C(=C\c1nc2ccccc2[nH]1)/c1ccc2c(c1)OCO2`, the “IC50 (luciferase reporter)” value in assay [1] was determined as 3920 nM. This compound also displayed an IC50 in assay [3] of over 5000 nM.
Consider `Cc1cccc(C)c1C(=O)Nc1nc(-c2ccccn2)cc2ccccc12`, for which the “IC50 (luciferase reporter)” value in assay [1] turned out to be 4030 nM. Further, the results for the IC50 in assay [3] and in assay [4] were over 5000 nM and over 6000 nM, respectively. Further, the “IC50 (ATP bioluminescence)” value in assay [5] was determined as 496 nM.
In the case of `O=C(Nc1cccc(C2=NCCN2)c1)c1ccc(-c2ccc(C(=O)Nc3cccc(C4=NCCN4)c3)cc2)cc1`, the “IC50 (luciferase reporter)” value in assay [1] worked out at 480 nM. In addition, the IC50 was over 5000 nM in assay [2], 19.4 nM in assay [3] and 44.8 nM in assay [4]. Moreover, the CC50 in the assay with HepG2-A16-CD81 was over 5000 nM.
